From US11219221B2 (FarmHannong Co., Ltd., priority 2017, dated 2022) come the findings set out here.

Structures are written as SMILES.

Test [1] has as its system CyPPO16 wild type (SEQ ID NO: 1) in PPO-deficient E. coli BT3(ΔPPO). Format: cell-based. Conditions: LB agar, 37° C., light, 16 to 20 hours. As to the method:
(§1) The mutated CyPPO gene obtained from the Example 2 was transformed to BT3 (ΔPPO) strain which is deficient of PPO activity and cultured in LB media with PPO-inhibiting herbicide, thereby examining whether growth of transformed BT3 was not inhibited.
(§2) BT3 competent cells were transformed with the pET303-CyPPO16 and pET303-CyPPO17 plasmids and those with a mutation(s) constructed in Example 2 respectively, and were cultured in LB agar media containing carbenicillin (Gold Biotechnology, Co., Ltd.).
(§3) Single colony of E. coli transformed with each CyPPO gene was cultured in 3 ml of LB broth containing carbenicillin overnight, and then was subcultured until absorbance (0D600) reached 0.5 to 1. Then, it was diluted with LB broth to OD600=0.5. Again, the diluted solution was serially diluted 4 times by a factor of one tenth.
(§4) The LB agar media (LB 25 g/l, Bacto agar 15 g/l) containing carbenicillin (100 μg/ml) and 0 to 4,000 μM of various herbicides dissolved in DMSO was prepared. Next, 10 μl of each diluted solution was dropped on the plate and cultured at 37° C. under light (Tables 7 and 9, FIGS. 2 to 6, and 18 to 22) or dark (Tables 8 and 10, FIGS. 7 to 17, and 23 to 33) for 16 to 20 hours. Then, extent of tolerance was evaluated.
(§5) The extent of herbicide tolerance of the mutated genes was evaluated by comparing that of mutated genes with that of wild type. The relative tolerance was represented with “+” as a factor of 10 times. Evaluation result was listed in Tables 7 to10 and FIGS. 2 to 33:
(§6) In Tables 7 to 10, tolerance level was presented as of tolerance of wild type and of variants equivalent to that of wild type, and was done as ‘+’ per each 10 fold resistance until ‘+++++’ as maximal resistance. (Tolerance level was evaluated by relative growth level of variants to that of wild type in the media containing highest concentration of herbicide; ‘+’=1-9 fold higher tolerance, ‘++’=10-99 fold higher tolerance, ‘+++’=100-999 fold higher tolerance, ‘++++’=1,000-9,999 fold higher tolerance, ‘+++++’=more than 10,000 fold higher tolerance)

Test [2] concerns CyPPO17 wild type (SEQ ID NO: 3) in PPO-deficient E. coli BT3(ΔPPO). Type of test: cell-based. Conditions: LB agar, 37° C., light, 16 to 20 hours. On the procedure: as §1, §2, §3, §4, §5, §6
The subject of test [3] is CyPPO16 (SEQ ID NO: 1) variant A162C in PPO-deficient E. coli BT3(ΔPPO). Format: cell-based. The following applies: LB agar, 37° C., light, 16 to 20 hours. On the procedure: as §1, §2, §3, §4
(§7) The extent of herbicide tolerance of the mutated genes was evaluated by comparing that of mutated genes with that of wild type. The relative tolerance was represented with “+” as a factor of 10 times.
(§8) In Tables 7 to 10, tolerance level was presented as of tolerance of wild type and of variants equivalent to that of wild type, and was done as ‘+’ per each 10 fold resistance until ‘+++++’ as maximal resistance.

In test [4] the test system is CyPPO16 (SEQ ID NO: 1) variant A162L in PPO-deficient E. coli BT3(ΔPPO). Type of test: cell-based. The following applies: LB agar, 37° C., light, 16 to 20 hours. As to the method:
as §1, §2, §3, §4, §7, §8

Test [5] concerns CyPPO16 (SEQ ID NO: 1) variant F360C in PPO-deficient E. coli BT3(ΔPPO). Format: cell-based. Conditions: LB agar, 37° C., light, 16 to 20 hours. As to the method: as §1, §2, §3, §4, §7, §8
Test [6] has as its system CyPPO16 (SEQ ID NO: 1) variant F360I in PPO-deficient E. coli BT3(ΔPPO). Format: cell-based. The following applies: LB agar, 37° C., light, 16 to 20 hours. As to the method:
as §1, §2, §3, §4, §7, §8

In test [7] the test system is CyPPO16 (SEQ ID NO: 1) variant F360L in PPO-deficient E. coli BT3(ΔPPO). Format: cell-based. The following applies: LB agar, 37° C., light, 16 to 20 hours. As to the method: as §1, §2, §3, §4, §7, §8
Test [8] concerns CyPPO16 (SEQ ID NO: 1) variant F360M in PPO-deficient E. coli BT3(ΔPPO). Format: cell-based. The following applies: LB agar, 37° C., light, 16 to 20 hours. As to the method: as §1, §2, §3, §4, §7, §8
For test [9], the system named is CyPPO16 (SEQ ID NO: 1) variant F360V in PPO-deficient E. coli BT3(ΔPPO). Type of test: cell-based. The following applies: LB agar, 37° C., light, 16 to 20 hours. As to the method: as §1, §2, §3, §4, §7, §8
The subject of test [10] is CyPPO16 (SEQ ID NO: 1) variant V305M in PPO-deficient E. coli BT3(ΔPPO). Format: cell-based. Conditions: LB agar, 37° C., light, 16 to 20 hours. On the procedure: as §1, §2, §3, §4, §7, §8
Test [11] has as its system CyPPO17 (SEQ ID NO: 3) variant A166C in PPO-deficient E. coli BT3(ΔPPO). Type of test: cell-based. Conditions: LB agar, 37° C., light, 16 to 20 hours. On the procedure: as §1, §2, §3, §4, §7, §8
In test [12] the test system is CyPPO17 (SEQ ID NO: 3) variant A166L in PPO-deficient E. coli BT3(ΔPPO). Format: cell-based. Conditions: LB agar, 37° C., light, 16 to 20 hours. As to the method: as §1, §2, §3, §4, §7, §8
In test [13] the test system is CyPPO17 (SEQ ID NO: 3) variant F359C in PPO-deficient E. coli BT3(ΔPPO). Type of test: cell-based. Conditions: LB agar, 37° C., light, 16 to 20 hours. On the procedure: as §1, §2, §3, §4, §7, §8
Test [14] relates to CyPPO17 (SEQ ID NO: 3) variant F359I in PPO-deficient E. coli BT3(ΔPPO). Format: cell-based. Conditions: LB agar, 37° C., light, 16 to 20 hours. As to the method: as §1, §2, §3, §4, §7, §8
The subject of test [15] is CyPPO17 (SEQ ID NO: 3) variant F359L in PPO-deficient E. coli BT3(ΔPPO). Type of test: cell-based. The following applies: LB agar, 37° C., light, 16 to 20 hours. On the procedure:
as §1, §2, §3, §4, §7, §8

Test [16] concerns CyPPO17 (SEQ ID NO: 3) variant F359M in PPO-deficient E. coli BT3(ΔPPO). Format: cell-based. The following applies: LB agar, 37° C., light, 16 to 20 hours. As to the method:
as §1, §2, §3, §4, §7, §8

Test [17] relates to CyPPO17 (SEQ ID NO: 3) variant V304M in PPO-deficient E. coli BT3(ΔPPO). Type of test: cell-based. Conditions: LB agar, 37° C., light, 16 to 20 hours. On the procedure:
as §1, §2, §3, §4, §7, §8

In test [18] the target is Spirulina subsalsa PPO CyPPO16 (SEQ ID NO: 1) variant A162L (MBP fusion). The test is described as follows: PPO enzyme inhibition (IC50), MBP-fused PPO. Format: biochemical. Conditions: 50 μM protoporphyrinogen IX, pH 8.0, room temperature, 30 min. On the procedure: (§9) Thus, PPO proteins of wild type and variants were expressed as fused to MBP and were used for experiments.
(§10) The following process for purification of PPO protein was performed in a 4° C. cold room. Amylose resin (NEB) was packed to 1.5×15 cm column (Bio-Rad, Econo Columns 1.5×15 cm, glass chromatography column, max. vol), and the obtained protein extracts were loaded to the column at a flow rate of 0.2 ml/min. The column was washed with 3 column volumes of buffer and the presence of protein in the washing solution was examined. When the protein was no longer detected, the washing procedure was terminated. Then, the MBP-PPO protein was eluted with approximately 2 column volumes of buffer containing 20 mM maltose. The protein concentration of each eluent was determined and the elution was stopped when the protein was no longer detected. Ten microliter of each fraction was investigated for protein quantification and SDS-PAGE analysis. The highly pure fractions of PPO protein variants were used for the enzyme assay.
(§11) Since protoporphyrinogen IX, a substrate of PPO protein, was not commercially available, it was chemically synthesized in the laboratory. Overall process was performed in dark under nitrogen stream. […] of protoporphyrin IX was dissolved in 20 ml of 20% (v/v) EtOH, and stirred under dark condition for 30 minutes. The obtained protoporphyrin IX solution was put into a 15 ml screw tube in an amount of 800 μl, and flushed with nitrogen gas for 5 minutes. To this, 1.5 g of sodium amalgam was added and vigorously shaken for 2 minutes. The lid was opened to exhaust hydrogen gas in the tube. Thereafter, the lid was closed and incubated for 3 minutes. The protoporphyrinogen IX solution was filtered using syringe and cellulose membrane filter. […] To determine the enzyme activity of PPO protein, a reaction mixture was prepared with the following composition (based on 10 ml): 50 mM Tris-Cl (pH 8.0); 50 mM NaCl; 0.04% (v/v) Tween 20; 40 mM glucose (0.072 g); 5 units glucose oxidase (16.6 mg); and 10 units catalase (1 μl).
(§12) Hundred and eighty microliters of a reaction mixture containing the purified PPO protein were placed in 96 well plates and 20 μl of […] were added. […] The reaction proceeded at room temperature for 30 min and the fluorescence of protoporphyrin IX was measured using Microplate reader (Sense, Hidex) (excitation: 405 nm; emission: 633 nm). […] To this, 2.7 N HCl was added, and the absorbance at 408 nm was measured. A standard curve was generated using standard protoporphyrin IX, and PPO activity was measured by calibration of protoporphyrin IX using the standard curve of protoporphyrin IX.

Test [19] deals with Spirulina subsalsa PPO CyPPO16 (SEQ ID NO: 1) variant L327T (MBP fusion). Put plainly: PPO enzyme inhibition (IC50), MBP-fused PPO. Format: biochemical. Conditions: 50 μM protoporphyrinogen IX, pH 8.0, room temperature, 30 min. As to the method:
as §9, §10, §11, §12

In test [20] the target is Spirulina subsalsa PPO CyPPO16 (SEQ ID NO: 1) variant R85A (MBP fusion). The test is described as follows: PPO enzyme inhibition (IC50), MBP-fused PPO. Format: biochemical. The following applies: 50 μM protoporphyrinogen IX, pH 8.0, room temperature, 30 min. On the procedure:
as §9, §10, §11, §12

For test [21], the target named is Spirulina subsalsa PPO CyPPO16 (SEQ ID NO: 1) variant V160C (MBP fusion). The test is described as follows: PPO enzyme inhibition (IC50), MBP-fused PPO. Format: biochemical. The following applies: 50 μM protoporphyrinogen IX, pH 8.0, room temperature, 30 min. As to the method: as §9, §10, §11, §12
The target of test [22] is Spirulina subsalsa PPO CyPPO16 (SEQ ID NO: 1) variant V305M (MBP fusion). Put plainly: PPO enzyme inhibition (IC50), MBP-fused PPO. Format: biochemical. The following applies: 50 μM protoporphyrinogen IX, pH 8.0, room temperature, 30 min. As to the method:
as §9, §10, §11, §12

Test [23] deals with Spirulina subsalsa PPO CyPPO16, wild type, SEQ ID NO: 1 (MBP fusion). Put plainly: PPO enzyme inhibition (IC50), MBP-fused PPO. Type of test: biochemical. The following applies: 50 μM protoporphyrinogen IX, pH 8.0, room temperature, 30 min. On the procedure:
as §9, §10, §11, §12

Consider `CCOC(=O)COc1cc(-c2nn(C)c(OC(F)F)c2Cl)c(F)cc1Cl` [pyraflufen-ethyl], for which the “Herbicide tolerance (relative to wild type)” value in [1] is given as “−”; in test [2], “−”; in test [3], “+++ (100-999 fold higher tolerance)”; in [4], “+++ (100-999 fold higher tolerance)”; in [5], “+++ (100-999 fold higher tolerance)”; in [6] it was “++ (10-99 fold higher tolerance)”. Further, the “Herbicide tolerance (relative to wild type)” value was “++ (10-99 fold higher tolerance)” in test [7]; “++ (10-99 fold higher tolerance)” in test [8]; “++ (10-99 fold higher tolerance)” in test [9]; “+++ (100-999 fold higher tolerance)” in test [10]; “++ (10-99 fold higher tolerance)” in [11]; “++ (10-99 fold higher tolerance)” in test [12]. Also, the “Herbicide tolerance (relative to wild type)” value in [13] is on record as “+ (1-9 fold higher tolerance)”; in [14] it was “++ (10-99 fold higher tolerance)”; in [15] it was “++ (10-99 fold higher tolerance)”; in test [16] it was “++ (10-99 fold higher tolerance)”; in [17] it was “+ (1-9 fold higher tolerance)”.

For `Cc1nn(-c2cc(NS(C)(=O)=O)c(Cl)cc2Cl)c(=O)n1C(F)F` [sulfentrazone], the IC50 stood at 1.1 µM in test [18]; 1.83 µM in [19]; 1.04 µM in test [20]; 0.584 µM in test [21]; 0.305 µM in [22]; 0.245 µM in test [23].

As a reminder, the IC50 is the point on the concentration scale where inhibition reaches its midpoint.
